Format in all cases: cell-based
Assay [1] has as its system C. freundii 104. Put plainly: New AST method using bichromatic absorbance between 405 and 620 nm. The conditions noted are these: for Susceptibility Index (D6 − C6)/(D3 − C3): 6 hrs vs 3 hrs. An excerpt:
(§1) The goals of the new AST method are to achieve higher precision, greater accuracy and increased reliability by using (1) quantitative spectral information derived from bichromatic measurements, (2) a dynamic breakpoint for individual drug wells based on their initial condition, and (3) a susceptibility index for determining susceptibility. The new AST method includes the following processes.
(§2) Bichromatic absorbance is the difference between the primary wavelength with significant turbidity and the secondary wavelength with little turbidity. For Gram positive organisms, the wavelengths are 505 and 620 for all drugs.
(§3) For Gram negative organisms, the wavelengths are 405 and 620 nm for most drugs except Nitrofurantoin and tetracycline. The wavelengths for Nitrofurantoin and tetracycline are 505 and 620 nm.
(§4) The susceptibility index (SI) is the ratio of the initial and final absorbance after correction for system drift. The susceptibility indexes are calculated for each drug well and the growth well (positive control well). The following formula (equation 1) is used to calculate the susceptibility index:
(§5) where • Di=Initial bichromatic absorbance from drug well • Df=Final bichromatic absorbance from drug well • Ci=Initial bichromatic absorbance from control ([…]) well • Cf=Final bichromatic absorbance from control (negative control) well
(§6) Compare susceptibility indices from drug wells to determine growth/no growth. A value of 1.05 is presently preferred for use as a cutoff to determine growth. The value may be adjusted as assay procedures undergo further refinement but is nonetheless expected to retain a value approaching 1.
(§7) In the current conventional MIC methods used in many art-recognized systems, the MIC is the first no growth well after the last growth well in the dilution series. Difficulties in interpretation occur, however, when there are “no growth” wells interspersed amongst “growth” wells in the same series. Conventional methods treat these no growth wells as “skipped” wells and the MIC is adjusted according to the number of skipped wells. In the methods and systems of the invention, however, an algorithm is applied which more accurately identifies which wells are true skipped wells. In addition, the algorithm is applied to determine which wells are contaminated. Use of the new system increases the accuracy of the read substantially.

For assay [2], the system named is C. freundii 104. Nature of the assay: Conventional AST method using absorbance at 620 nm. The conditions noted are these: Citrobacter freundii, 4 hrs and 16 hrs, breakpoint 400. As for the experimental part:
The monochromatic method of spectral analysis involves selecting a single wavelength that contains a unique spectral feature for the analyte of interest. In the conventional method, the analyte is turbidity and its measurement at 620 nm wavelength is used to quantify growth. The current conventional AST method determines growth by comparing the calculated processed value, which is the 620 nm absorbance difference between two (2) hours and forty-five minutes and 16 or 18 hours against a breakpoint. This breakpoint was determined by testing 100-200 isolates and reading results manually or via instruments and correlating the reads of those isolates to their processed values. This approach has limited capability because the processed value is not corrected for system-dependent variations and the breakpoint is not adaptable to system change. […] (see, e.g., Dried Gram Negative Procedural Manual, supra, at page 1 (and references cited therein).) Appropriate specimens should be collected, transported, and placed on primary isolation media according to procedures recommended in the Manual of Clinical Microbiology (Murray, et al. (eds.), Manual of Clinical Microbiology, 6th ed., American Society for Microbiology, Washington, D.C. (1995)). Subsequently, a standard, automated assay may thus be conducted essentially as follows.

Assay [3] relates to C. freundii 104. Nature of the assay: Manual read MIC. The conditions noted are these: Citrobacter freundii; C. freundii 104, manual read. From the text:
(§8) (see, e.g., Dried Gram Negative Procedural Manual, supra, at page 1 (and references cited therein).) Appropriate specimens should be collected, transported, and placed on primary isolation media according to procedures recommended in the Manual of Clinical Microbiology (Murray, et al. (eds.), Manual of Clinical Microbiology, 6th ed., American Society for Microbiology, Washington, D.C. (1995)). Subsequently, a standard, automated assay may thus be conducted essentially as follows.
(§9) The panels may be read manually (e.g. using a MICROSCAN® Microdilution Viewer, Dade MicroScan Inc., West Sacramento, Calif.) and results recorded on an appropriate worksheet. The panels may also—or alternatively—be read instrumentally, e.g., using a TOUCHSCAN®-SR, AUTOSCAN®-4, or WALKAWAY® system (Dade MicroScan Inc., West Sacramento, Calif.). Refer to the appropriate operator's manual for reading panels using instrumentation.

Assay [4] deals with C. freundii 87. Put plainly: New AST method using bichromatic absorbance between 405 and 620 nm.
From the text: as §1, §2, §3, §4, §5, §6, §7

Assay [5] concerns C. freundii 87. Put plainly: Conventional AST method using absorbance at 620 nm. The conditions noted are these: Citrobacter freundii, 3 hrs and 16 hrs, breakpoint 1800.
Experimental: In the conventional method, the analyte is turbidity and its measurement at 620 nm wavelength is used to quantify growth. The current conventional AST method determines growth by comparing the calculated processed value, which is the 620 nm absorbance difference between two (2) hours and forty-five minutes and 16 or 18 hours against a breakpoint. This breakpoint was determined by testing 100-200 isolates and reading results manually or via instruments and correlating the reads of those isolates to their processed values. […] Subsequently, a standard, automated assay may thus be conducted essentially as follows.
Assay [6] relates to C. freundii 87. Put plainly: Manual read MIC. The conditions noted are these: Citrobacter freundii; C. freundii 87, manual read.
From the text: as §8, §9

Setting [7] is: Citrobacter freundii, bichromatic 405-620 nm, 3 hrs and 6 hrs.

Converted amounts (≈) assume the structure as drawn.

Regarding `NC[C@H]1O[C@H](O[C@H]2[C@H](O)[C@@H](O[C@H]3O[C@H](CO)[C@@H](O)[C@H](N)[C@H]3O)[C@H](N)C[C@@H]2N)[C@H](N)C[C@@H]1O` [Tobramycin], the MIC in assay [1] (setting [7]), in assay [2] and in assay [3] was 2 µg/mL (≈ 4.28 µM) in each case. Also, the “Susceptibility Index (D6 − C6)/(D3 − C3)” value is reported as 3696/1205 = 3.0 in assay [1] (drug level 0.5 μg/mL); 1898/1201 = 1.6 in assay [1] (drug level 1 μg/mL); 1145/1180 = 1.0 in assay [1] (drug level 2 μg/mL); 1096/1136 = 1.0 in assay [1] (drug level 4 μg/mL); 1196/1237 = 1.0 in assay [1] (drug level 8 μg/mL).
Consider `Cc1cc(NS(=O)(=O)c2ccc(N)cc2)no1` [Sulfamethoxazole], for which the results for the MIC in assay [4] (setting [7]), in assay [5] and in assay [6] were over 256 µg/mL, under 256 µg/mL and over 256 µg/mL, respectively. For the same molecule, the “Susceptibility Index (D6 − C6)/(D3 − C3)” value in assay [4] (drug level 256 μg/mL, 6 hrs vs 3 hrs) is 1639/1064 = 1.5.
